According to ChEMBL document CHEMBL1201862, “PubChem BioAssay data set” (2004):
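Five concentrations, 48 hours, 96-well plates. GI50 = concentration required for 50% inhibition of growth.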 The source made the active and inactive calls. Cut-off read from the data, not from the text of the source: active = GI50 up to about 1.1 µM and inactive = higher.

Tests used:
Test in all cases: growth of human tumour cells (NCI), 48 h
BT-549 = system: BT-549
HL-60 = system: HL-60
NCI-H226 = system: NCI-H226
DU-145 = system: DU-145
CAKI-1 = system: CAKI-1
NCI-H460 = system: NCI-H460
LOX IMVI = system: LOX IMVI
SK-MEL-5 = system: SK-MEL-5
HOP-62 = system: HOP-62
SF-295 = system: SF-295
COLO 205 = system: COLO 205
OVCAR-8 = system: OVCAR-8
MDA-N = system: MDA-N
UACC-257 = system: UACC-257
IGROV-1 = system: IGROV-1
MDA-MB-435 = system: MDA-MB-435
EKVX = system: EKVX
NCI/ADR-RES = system: NCI/ADR-RES
RXF 393 = system: RXF 393
HCC 2998 = system: HCC 2998

Structure (SMILES) | GI50 (BT-549) | GI50 (HL-60) | GI50 (NCI-H226) | GI50 (DU-145) | GI50 (CAKI-1) | GI50 (NCI-H460) | GI50 (LOX IMVI) | GI50 (SK-MEL-5) | GI50 (HOP-62) | GI50 (SF-295) | GI50 (COLO 205) | GI50 (OVCAR-8) | GI50 (MDA-N) | GI50 (UACC-257) | GI50 (IGROV-1) | GI50 (MDA-MB-435) | GI50 (EKVX) | GI50 (NCI/ADR-RES) | GI50 (RXF 393) | GI50 (HCC 2998)
S=C(S)NCCCn1ccnc1 | > 100 µM (inactive) | > 100 µM (inactive) | > 100 µM (inactive) | > 100 µM (inactive) | > 100 µM (inactive) | > 100 µM (inactive) | > 100 µM (inactive) | > 100 µM (inactive) | > 100 µM (inactive) | > 100 µM (inactive) | > 100 µM (inactive) | > 100 µM (inactive) | > 100 µM (inactive) | > 100 µM (inactive) | > 100 µM (inactive) | > 100 µM (inactive) | > 100 µM (inactive) | > 100 µM (inactive) | – | –
Cc1ccc(C2=Nc3ccccc3SC(c3cccc([N+](=O)[O-])c3)C2)cc1 (stereo not given) | 15.7 µM (inactive) | – | > 100 µM (inactive) | 13.1 µM (inactive) | 51.4 µM (inactive) | 27.9 µM (inactive) | – | 15.4 µM (inactive) | 27.6 µM (inactive) | 28.4 µM (inactive) | 58.7 µM (inactive) | 10.2 µM (inactive) | 15.7 µM (inactive) | 24.7 µM (inactive) | 8.34 µM (inactive) | 13.1 µM (inactive) | 49.7 µM (inactive) | 59.6 µM (inactive) | 16.4 µM (inactive) | –
Cc1ccc(C(CC(=O)C(C)(C)CN2CCCCC2)SCCS(=O)(=O)O)cc1 (stereo not given) | 74.6 µM (inactive) | – | 30.7 µM (inactive) | 41.9 µM (inactive) | 22.3 µM (inactive) | 42.3 µM (inactive) | – | 23.2 µM (inactive) | 36.6 µM (inactive) | 15 µM (inactive) | 18.8 µM (inactive) | 21.9 µM (inactive) | 31 µM (inactive) | – | 33.9 µM (inactive) | 23.7 µM (inactive) | 21.9 µM (inactive) | 28.8 µM (inactive) | 11.8 µM (inactive) | 39.4 µM (inactive)
CC(C)(C)OC(=O)NC(Cc1ccccc1)OCc1ccccc1 (stereo not given) | 23.3 µM (inactive) | – | 18.7 µM (inactive) | 20.1 µM (inactive) | 19.6 µM (inactive) | 21.3 µM (inactive) | – | 15.5 µM (inactive) | 18.9 µM (inactive) | 16.6 µM (inactive) | 35 µM (inactive) | 20.1 µM (inactive) | 19.3 µM (inactive) | > 10 µM (inactive) | > 10 µM (inactive) | 19.4 µM (inactive) | 17.4 µM (inactive) | 26.7 µM (inactive) | 20.8 µM (inactive) | 23.9 µM (inactive)
N#Cc1nc(COCc2ccccc2)oc1N | 29.6 µM (inactive) | – | > 100 µM (inactive) | > 100 µM (inactive) | > 100 µM (inactive) | – | > 100 µM (inactive) | – | > 100 µM (inactive) | > 100 µM (inactive) | > 100 µM (inactive) | > 100 µM (inactive) | > 100 µM (inactive) | > 100 µM (inactive) | > 100 µM (inactive) | > 100 µM (inactive) | > 100 µM (inactive) | > 100 µM (inactive) | > 100 µM (inactive) | > 100 µM (inactive)
CC(=O)SSC1(Cl)C(C)(C)C(Cl)(SSC(C)=O)C1(C)C (stereo not given) | > 100 µM (inactive) | – | > 100 µM (inactive) | 29.6 µM (inactive) | > 100 µM (inactive) | 28.5 µM (inactive) | 33.3 µM (inactive) | 29.8 µM (inactive) | 44.3 µM (inactive) | 43.5 µM (inactive) | > 100 µM (inactive) | 39.4 µM (inactive) | 65 µM (inactive) | 41.3 µM (inactive) | 51.2 µM (inactive) | 49.1 µM (inactive) | 39.9 µM (inactive) | 40.2 µM (inactive) | 21 µM (inactive) | –
COCN1C(=O)[C@@H]2CCCN2C(=O)c2cc(Cl)ccc21 | > 100 µM (inactive) | – | – | > 100 µM (inactive) | > 100 µM (inactive) | > 100 µM (inactive) | > 100 µM (inactive) | > 100 µM (inactive) | > 100 µM (inactive) | > 100 µM (inactive) | > 100 µM (inactive) | > 100 µM (inactive) | > 100 µM (inactive) | > 100 µM (inactive) | > 100 µM (inactive) | > 100 µM (inactive) | > 100 µM (inactive) | > 100 µM (inactive) | > 100 µM (inactive) | > 100 µM (inactive)
Cc1cc(C)c(S(=O)(=O)N2CCN(S(=O)(=O)c3c(C)cc(C)cc3C)OCCCCCO2)c(C)c1 | > 100 µM (inactive) | > 100 µM (inactive) | > 100 µM (inactive) | > 100 µM (inactive) | > 100 µM (inactive) | > 100 µM (inactive) | > 100 µM (inactive) | > 100 µM (inactive) | > 100 µM (inactive) | > 100 µM (inactive) | > 100 µM (inactive) | > 100 µM (inactive) | > 100 µM (inactive) | > 100 µM (inactive) | > 100 µM (inactive) | > 100 µM (inactive) | > 100 µM (inactive) | > 100 µM (inactive) | – | –
CN(C)CCN(/C(=N/c1ccccc1)N1CCCC1)c1ccccc1 | > 100 µM (inactive) | 11.6 µM (inactive) | 75.9 µM (inactive) | > 100 µM (inactive) | > 100 µM (inactive) | 42.4 µM (inactive) | 4.06 µM (inactive) | 30.2 µM (inactive) | 23.4 µM (inactive) | 18.4 µM (inactive) | 16.9 µM (inactive) | 68.7 µM (inactive) | 4.1 µM (inactive) | 55.1 µM (inactive) | 13.7 µM (inactive) | 15.5 µM (inactive) | > 100 µM (inactive) | 42.3 µM (inactive) | – | –
CCNc1nc2c(ncn2C2CC(O)C(COP(=O)(O)O)O2)c(=O)[nH]1 (stereo not given) | > 100 µM (inactive) | > 100 µM (inactive) | > 100 µM (inactive) | > 100 µM (inactive) | > 100 µM (inactive) | > 100 µM (inactive) | > 100 µM (inactive) | > 100 µM (inactive) | > 100 µM (inactive) | > 100 µM (inactive) | > 100 µM (inactive) | > 100 µM (inactive) | > 100 µM (inactive) | > 100 µM (inactive) | > 100 µM (inactive) | > 100 µM (inactive) | > 100 µM (inactive) | > 100 µM (inactive) | – | > 100 µM (inactive)
CCCCCCCC(CC(=O)O)OC(=O)CC(CCCCCCC)OC1OC(C)C(O)C(O)C1OC1OC(C)C(O)C(O)C1O (stereo not given) | > 100 µM (inactive) | – | > 100 µM (inactive) | > 100 µM (inactive) | > 100 µM (inactive) | > 100 µM (inactive) | > 100 µM (inactive) | > 100 µM (inactive) | > 100 µM (inactive) | > 100 µM (inactive) | > 100 µM (inactive) | > 100 µM (inactive) | > 100 µM (inactive) | > 100 µM (inactive) | 62.2 µM (inactive) | > 100 µM (inactive) | > 100 µM (inactive) | > 100 µM (inactive) | – | > 100 µM (inactive)
NCCNC(=O)CN(CC(=O)O)C1CCCCC1N(CC(=O)O)CC(=O)O (stereo not given) | > 100 µM (inactive) | > 100 µM (inactive) | > 100 µM (inactive) | > 100 µM (inactive) | > 100 µM (inactive) | > 100 µM (inactive) | > 100 µM (inactive) | > 100 µM (inactive) | > 100 µM (inactive) | > 100 µM (inactive) | > 100 µM (inactive) | > 100 µM (inactive) | > 100 µM (inactive) | > 100 µM (inactive) | > 100 µM (inactive) | > 100 µM (inactive) | > 100 µM (inactive) | > 100 µM (inactive) | – | > 100 µM (inactive)
NC1C/C(=N\O)c2c(Cl)sc(Cl)c21 (stereo not given) | 18.5 µM (inactive) | 21.4 µM (inactive) | 21.9 µM (inactive) | 15.1 µM (inactive) | 18 µM (inactive) | 20.4 µM (inactive) | 3.11 µM (inactive) | – | 21.5 µM (inactive) | 28.1 µM (inactive) | 25.4 µM (inactive) | 15.2 µM (inactive) | 18 µM (inactive) | 17.1 µM (inactive) | 17 µM (inactive) | 15.6 µM (inactive) | 18.5 µM (inactive) | 25.6 µM (inactive) | – | 92.7 µM (inactive)
COc1cc2oc(=O)ccc2cc1C(=O)CC(C)C | 71.4 µM (inactive) | 39.2 µM (inactive) | 28.6 µM (inactive) | > 100 µM (inactive) | 22.9 µM (inactive) | 62.5 µM (inactive) | > 100 µM (inactive) | > 100 µM (inactive) | > 100 µM (inactive) | > 100 µM (inactive) | > 100 µM (inactive) | > 100 µM (inactive) | > 100 µM (inactive) | > 100 µM (inactive) | > 100 µM (inactive) | > 100 µM (inactive) | 94.8 µM (inactive) | 66.4 µM (inactive) | – | > 100 µM (inactive)
Nn1c(Nc2ccc(S(N)(=O)=O)cc2)nnc(/C=C/c2c(O)ccc3ccccc23)c1=O | 14.9 µM (inactive) | 7.74 µM (inactive) | – | 26.3 µM (inactive) | 22.9 µM (inactive) | 26.7 µM (inactive) | 12.9 µM (inactive) | 14.5 µM (inactive) | 20.3 µM (inactive) | 24.3 µM (inactive) | 27.1 µM (inactive) | 3.08 µM (inactive) | 16.3 µM (inactive) | 27.5 µM (inactive) | 0.128 µM (active) | 20.4 µM (inactive) | 13.3 µM (inactive) | 16.3 µM (inactive) | – | 18.8 µM (inactive)
